Data from patent publication US20090227607A1, “DEAZAPURINES USEFUL AS INHIBITORS OF JANUS KINASES” (priority 2006, published 2009).

Assays:
JAK-2 enzyme = JAK-2 enzyme (Homo sapiens, UniProt O60674); experiment: JAK2 Inhibition Assay; format: biochemical; conditions: 15 μM poly(Glu)4Tyr, 12 μM ATP, 25° C.
Outline: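 JAK2 kinase in HEPES pH 7.4 buffer with MgCl2, DTT, NaCl and BSA; final 15 μM poly(Glu)4Tyr and 12 μM [33P]ATP. Enzyme added to start, 20 min at 25 °C, TCA stop, filter capture and scintillation count of 33P incorporation; Ki values.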

JAK3 = biological target: T1, JAK3 (Homo sapiens, UniProt P52333); experiment: JAK3 Inhibition Assay; format: biochemical; conditions: 1 μM poly(Glu)4Tyr, 5 μM ATP, 1 nM JAK3, 25° C.; read-out: JAK3 enzyme inhibition data (Ki)
T1 sequence (P52333 1-1124): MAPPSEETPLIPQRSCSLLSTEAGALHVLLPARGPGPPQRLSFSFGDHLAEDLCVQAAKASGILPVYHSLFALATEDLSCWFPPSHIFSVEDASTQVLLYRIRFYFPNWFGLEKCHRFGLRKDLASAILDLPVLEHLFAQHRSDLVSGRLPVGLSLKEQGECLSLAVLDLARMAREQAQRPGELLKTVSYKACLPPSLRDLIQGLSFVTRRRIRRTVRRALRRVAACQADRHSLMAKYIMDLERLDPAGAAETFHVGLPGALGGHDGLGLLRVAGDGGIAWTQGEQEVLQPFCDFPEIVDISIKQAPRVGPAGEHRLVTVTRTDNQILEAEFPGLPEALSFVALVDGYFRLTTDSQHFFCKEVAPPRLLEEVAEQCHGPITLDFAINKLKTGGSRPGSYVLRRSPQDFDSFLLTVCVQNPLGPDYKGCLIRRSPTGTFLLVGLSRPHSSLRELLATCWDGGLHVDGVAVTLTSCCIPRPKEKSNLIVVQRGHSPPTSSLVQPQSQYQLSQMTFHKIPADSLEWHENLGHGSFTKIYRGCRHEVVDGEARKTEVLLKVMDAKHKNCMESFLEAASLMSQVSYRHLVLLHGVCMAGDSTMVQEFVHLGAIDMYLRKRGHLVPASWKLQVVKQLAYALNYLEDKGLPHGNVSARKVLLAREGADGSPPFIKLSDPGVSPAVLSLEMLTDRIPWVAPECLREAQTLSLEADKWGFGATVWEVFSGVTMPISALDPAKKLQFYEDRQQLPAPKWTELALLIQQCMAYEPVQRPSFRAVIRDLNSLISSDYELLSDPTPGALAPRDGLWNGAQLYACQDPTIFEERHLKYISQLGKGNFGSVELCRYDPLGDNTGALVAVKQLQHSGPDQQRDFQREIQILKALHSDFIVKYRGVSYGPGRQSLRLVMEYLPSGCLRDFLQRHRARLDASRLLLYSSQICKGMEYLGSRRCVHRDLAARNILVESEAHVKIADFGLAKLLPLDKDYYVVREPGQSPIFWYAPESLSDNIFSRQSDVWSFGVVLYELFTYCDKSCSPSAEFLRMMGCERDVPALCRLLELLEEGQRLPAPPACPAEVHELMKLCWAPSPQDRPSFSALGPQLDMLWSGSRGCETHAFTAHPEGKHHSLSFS
Outline: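 Radiometric JAK3 (1 nM) reaction with 5 μM [33P]ATP and 1 μM poly(Glu)4Tyr in HEPES pH 7.4 buffer, run for 20 min at 25 °C. Reactions were stopped with TCA and filter-captured, and 33P incorporation was counted; values reported as Ki.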

Sequence of JAK-2 enzyme (O60674 whole entry, species assumed): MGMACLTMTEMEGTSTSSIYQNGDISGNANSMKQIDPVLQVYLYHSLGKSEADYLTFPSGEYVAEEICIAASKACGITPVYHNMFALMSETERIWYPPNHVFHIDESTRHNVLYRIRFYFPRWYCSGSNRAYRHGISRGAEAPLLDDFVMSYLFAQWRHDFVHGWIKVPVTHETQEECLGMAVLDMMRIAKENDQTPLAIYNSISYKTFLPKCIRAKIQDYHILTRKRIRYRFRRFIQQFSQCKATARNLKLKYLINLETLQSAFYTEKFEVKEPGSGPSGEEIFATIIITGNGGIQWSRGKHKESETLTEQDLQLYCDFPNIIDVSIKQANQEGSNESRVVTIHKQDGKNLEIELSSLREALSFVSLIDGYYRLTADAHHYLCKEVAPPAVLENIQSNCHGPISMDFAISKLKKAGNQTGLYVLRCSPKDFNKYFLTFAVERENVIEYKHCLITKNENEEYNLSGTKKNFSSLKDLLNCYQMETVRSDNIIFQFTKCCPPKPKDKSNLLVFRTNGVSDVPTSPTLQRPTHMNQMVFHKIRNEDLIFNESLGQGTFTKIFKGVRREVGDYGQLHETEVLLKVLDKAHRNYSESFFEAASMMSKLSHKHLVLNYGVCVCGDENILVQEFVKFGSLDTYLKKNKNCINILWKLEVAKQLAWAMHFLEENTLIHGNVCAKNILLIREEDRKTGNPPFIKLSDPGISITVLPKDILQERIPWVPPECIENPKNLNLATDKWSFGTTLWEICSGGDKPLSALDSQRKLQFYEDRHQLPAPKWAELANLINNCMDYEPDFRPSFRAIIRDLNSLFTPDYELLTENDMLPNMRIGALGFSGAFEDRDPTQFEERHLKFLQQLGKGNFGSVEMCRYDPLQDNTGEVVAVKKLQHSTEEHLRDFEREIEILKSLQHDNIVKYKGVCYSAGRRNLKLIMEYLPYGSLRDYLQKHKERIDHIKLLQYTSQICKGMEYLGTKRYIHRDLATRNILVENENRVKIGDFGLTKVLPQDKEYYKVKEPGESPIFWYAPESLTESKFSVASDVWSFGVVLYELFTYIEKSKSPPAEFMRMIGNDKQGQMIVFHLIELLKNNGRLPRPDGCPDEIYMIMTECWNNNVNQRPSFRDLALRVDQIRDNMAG

Compound	Ki (JAK-2 enzyme) [nM]	Ki (JAK3) [nM]
CC(CO)NC(=O)C(C)n1cc(-c2ncnc3[nH]ccc23)cn1 (stereo not shown) [Compound 79]	500 to 5000	100 to 500
C=CCN(C(=O)c1ccc(-c2ncnc3[nH]ccc23)o1)[C@H](C)c1ccccc1 [Compound 220]	< 100	100 to 500
CC(C)NC(=O)C(C)n1cc(-c2ncnc3[nH]ccc23)cn1 (stereo not shown) [Compound 78]	100 to 500	100 to 500
N#CCCN(CCC(F)(F)F)C(=O)c1cc(-c2ncnc3[nH]cc(Cl)c23)c[nH]1 [Compound 242]	< 100	< 100
CCC(CC)CNC(=O)c1cc(-c2ncnc3[nH]ccc23)c[nH]1 [Compound 138]	< 100	< 100
C[C@@H]1CC[C@@H](C)N1C(=O)c1cc(-c2ncnc3[nH]ccc23)cn1C [Compound 224]	< 100	100 to 500
O=C(Nc1nc(-c2ncnc3[nH]ccc23)cs1)C1CC=CC1 [Compound 59]	< 100	< 100
Cc1c[nH]c2ncnc(-c3cnn(CCC(C)C)c3)c12 [Compound 163]	< 100	100 to 500
O=C(c1coc(-c2ncnc3[nH]ccc23)c1)N(CCC(F)(F)F)CC1CC1 [Compound 196]	< 100	100 to 500
O=C(Nc1nc(-c2ncnc3[nH]ccc23)cs1)C1CCCNC1 (stereo not shown) [Compound 176]	< 100	< 100
CSCCNC(=O)C(C)n1cc(-c2ncnc3[nH]ccc23)cn1 (stereo not shown) [Compound 84]	100 to 500	100 to 500
O=C(NC1CC1)c1cc(-c2ncnc3[nH]ccc23)c[nH]1 [Compound 12]	< 100	100 to 500
CC(C)CCn1cc(-c2ncnc3[nH]cc(Cl)c23)cn1 [Compound 164]	< 100	100 to 500
CN(CCc1ccccn1)C(=O)c1cc(-c2ncnc3[nH]ccc23)c[nH]1 [Compound 46]	100 to 500	100 to 500
O=C(c1cc(-c2ncnc3[nH]ccc23)c[nH]1)N(CC1CCCC1)CC(F)(F)F [Compound 186]	< 100	100 to 500
CCCn1cc(-c2ncnc3[nH]cc(Cl)c23)cn1 [Compound 165]	< 100	100 to 500
c1cc(-c2ncnc3[nH]ccc23)[nH]n1 [Compound 4]	500 to 5000	100 to 500
CC(C)CCn1cc(-c2ncnc3[nH]ccc23)cn1 [Compound 107]	< 100	100 to 500
COC(=O)C1CC=CCC1C(=O)Nc1nc(-c2ncnc3[nH]ccc23)cs1 (stereo not shown) [Compound 149]	< 100	100 to 500

Compound	Ki (JAK-2 enzyme) [nM]	Ki (JAK3) [nM]
CC(C)CN(CCC(F)(F)F)C(=O)c1cc(-c2ncnc3[nH]ccc23)co1 [Compound 252]	100 to 500	100 to 500
CCN(CCC#N)C(=O)c1cc(-c2ncnc3[nH]cc(C)c23)c[nH]1 [Compound 207]	< 100	100 to 500
CCCC(C)n1cc(-c2ncnc3[nH]ccc23)cn1 (stereo not shown) [Compound 38]	< 100	< 100
CCN(Cc1ccccc1)C(=O)c1ccc(-c2ncnc3[nH]ccc23)o1 [Compound 118]	< 100	< 100
C[C@@H]1CC[C@@H](C)N1C(=O)c1cc(-c2ncnc3[nH]cc(Cl)c23)c[nH]1 [Compound 213]	< 100	< 100
CCN(CCC#N)C(=O)c1cc(-c2ncnc3[nH]ccc23)c[nH]1 [Compound 16]	< 100	< 100
O=C(c1cc(-c2ncnc3[nH]ccc23)c[nH]1)N(CCC(F)(F)F)Cc1ccccc1 [Compound 108]	< 100	< 100
Cn1cc(-c2ncnc3[nH]ccc23)cc1C(=O)N(CCC(F)(F)F)CC1CCC1 [Compound 223]	< 100	< 100
Cc1c[nH]c2ncnc(-c3cnn(C)c3)c12 [Compound 160]	100 to 500	100 to 500
CCN(CC)C(=O)C(C)n1cc(-c2ncnc3[nH]ccc23)cn1 (stereo not shown) [Compound 88]	100 to 500	< 100
CC(C)CC(=O)Nc1nc(-c2ncnc3[nH]ccc23)cs1 [Compound 31]	< 100	< 100
CCCN(C(=O)CC(C)C)c1nc(-c2ncnc3[nH]ccc23)cs1 [Compound 103, 3-Methyl-N-propyl-N-[4-(7H-pyrrolo[2,3-d]pyrimidin-4-yl)-thiazol-2-yl]-butyramide]	< 100	< 100
CCCCN(CCC)C(=O)c1cc(-c2ncnc3[nH]cc(C)c23)c[nH]1 [Compound 209]	< 100	100 to 500
O=C1[C@H]2CCCC[C@H]2C(=O)N1c1nc(-c2ncnc3[nH]ccc23)cs1 [Compound 181]	100 to 500	100 to 500
O=C(c1ccc(-c2ncnc3[nH]ccc23)o1)N(CCC(F)(F)F)CC1CCC1 [Compound 215]	< 100	< 100
O=C1CCC(C(=O)Nc2nc(-c3ncnc4[nH]ccc34)cs2)C1 (stereo not shown) [Compound 167]	< 100	< 100
CCC1CC[C@@H](CC)N1C(=O)c1cc(-c2ncnc3[nH]ccc23)c[nH]1 (stereo partly shown) [Compound 184]	< 100	100 to 500
CC(C)CN(CCC(F)(F)F)C(=O)c1cc(-c2ncnc3[nH]cc(Cl)c23)c[nH]1 [Compound 244]	< 100	100 to 500
COCCNC(=O)C(C)n1cc(-c2ncnc3[nH]ccc23)cn1 (stereo not shown) [Compound 81]	500 to 5000	500 to 5000

Compound	Ki (JAK-2 enzyme) [nM]	Ki (JAK3) [nM]
O=C(c1ccc(-c2ncnc3[nH]ccc23)o1)N(CCC(F)(F)F)C1CCCC1 [Compound 193]	< 100	< 100
COC1CCCC(C(=O)Nc2nc(-c3ncnc4[nH]ccc34)cs2)C1 (stereo not shown) [Compound 63]	< 100	100 to 500
CCN(Cc1ccccc1)C(=O)c1cc(-c2ncnc3[nH]ccc23)c[nH]1 [Compound 30]	< 100	< 100
c1nc(-c2ccsc2)c2cc[nH]c2n1 [Compound 2]	100 to 500	100 to 500
CCCC(CC)n1cc(-c2ncnc3[nH]ccc23)cn1 (stereo not shown) [Compound 94, 4-(1-(hexan-3-yl)-1H-pyrazol-4-yl)-7H-pyrrolo[2,3-d]pyrimidine]	< 100	< 100
CCCCN(CC#N)C(=O)c1cc(-c2ncnc3[nH]ccc23)c[nH]1 [Compound 19]	< 100	< 100
Cn1cc(-c2ncnc3[nH]ccc23)cc1C(=O)N(CC1CC1)CC(F)(F)F [Compound 228]	< 100	< 100
O=C(Nc1nc(-c2ncnc3[nH]ccc23)cs1)C1CCCC1O (stereo not shown) [Compound 60]	< 100	< 100
O=C(Nc1nc(-c2ncnc3[nH]ccc23)cs1)C1CCC1 [Compound 57]	< 100	< 100
CC(C)NC(=O)c1cc(-c2ncnc3[nH]ccc23)c[nH]1 [Compound 8]	< 100	100 to 500
COCCN(C)C(=O)c1cc(-c2ncnc3[nH]ccc23)cn1C [Compound 233]	< 100	500 to 5000
CC(C(=O)N(C)C)n1cc(-c2ncnc3[nH]ccc23)cn1 (stereo not shown) [Compound 77]	100 to 500	500 to 5000
CCN(Cc1ccccc1)C(=O)c1cc(-c2ncnc3[nH]cc(C)c23)c[nH]1 [Compound 202]	< 100	100 to 500
O=C(CC(F)(F)F)Nc1nc(-c2ncnc3[nH]ccc23)cs1 [Compound 64]	< 100	< 100
CC(C)CC(=O)N(CCCC(F)(F)F)c1nc(-c2ncnc3[nH]ccc23)cs1 [Compound 129]	< 100	100 to 500
Cn1cc(-c2ncnc3[nH]ccc23)cc1C(=O)N(CC1CCC1)CC(F)(F)F [Compound 238]	< 100	100 to 500
N#CCN(Cc1ccc(F)cc1)C(=O)c1cc(-c2ncnc3[nH]ccc23)c[nH]1 [Compound 112]	< 100	< 100
O=C(c1ccc(-c2ncnc3[nH]ccc23)o1)N1CCCC1 [Compound 219]	100 to 500	500 to 5000
